According to article PMC1716192, “A Plant-Derived Morphinan as a Novel Lead Compound Active against Malaria Liver Stages” (PLoS Medicine, 2006):

How the values were obtained:
[1] = tested on: P. yoelii (265 BY strain) hepatic stages; test: In vitro assay for P. yoelii liver stage inhibition in primary mouse hepatocytes; type: cell-based; details: for IC50 / IC90: 48 h
Description: P. yoelii (265 BY strain) and P. falciparum (NF 54 strain) sporozoites were obtained by dissection of infected Anopheles stephensi salivary glands. Primary mouse hepatocytes were isolated as previously described and seeded in eight-well Lab-Tek plastic chamber slides (VWR, Fontenay-sous-Bois, France) previously coated with rat-tail collagen I (BD Biosciences, Le Pont de Claix, France) at a density of 10^5 cells per well. Mouse hepatocytes were cultured at 37 °C in 5% CO2 in William's E medium supplemented with 10% fetal calf serum, 1% L-glutamine, 1% sodium pyruvate, 1% insulin-transferrin-selenium, 1% nonessential amino acids, and 1% penicillin-streptomycin (all from Invitrogen, Cergy-Pontoise, France), for 24 h before inoculation of P. yoelii sporozoites (10^5 per well). Human liver fragments were collected following informed consent provided from patients undergoing a partial hepatectomy. The collection and use of these tissues were undertaken in accordance with French Government ethical regulations. Primary human hepatocytes were isolated from the healthy parts of these liver biopsies as previously described. Human hepatocytes were seeded in LabTek plastic chamber slides coated with collagen, at a density of 1.8 × 10^5 cells per well and cultured at 37 °C in 5% CO2 in the same medium as above, supplemented with 10^−7 M dexamethasone (Sigma) and 2% DMSO after complete cell adherence (12–24 h), for at least 48 h before inoculation of P. falciparum sporozoites (10^5 per well). For a standard assay, the plant extract, the purified compound, or primaquine was solubilized in DMSO, further diluted in culture medium (equal DMSO concentrations of <0.3% per well), and then added to hepatocyte cultures at the time of sporozoite inoculation. Three hours later, after sporozoite penetration into hepatocytes, cultures were washed and further incubated in the presence of the drug. Culture medium containing the appropriate drug concentration was changed daily until 48 h for P. yoelii, or until 5 d for P. falciparum. Parasites were quantified on the last day of incubation. For the in vitro timing experiments, tazopsine treatment of P. yoelii and P. falciparum cultures was undertaken for different periods during the cultivation: 0 h to 3 h, 3 h to 24 h, or 24 h to 48 h after P. yoelii sporozoite inoculation (quantification at 48 h), or 0 h to 2 d, or 3 d to 5 d after P. falciparum sporozoite inoculation (quantification at 5 d). […] Cells were stained with Evans Blue (0.4%), and parasites and cells nuclei were stained with 1 μg/ml of diamidino-phenylindole (DAPI; Sigma). Parasite numbers were counted under a fluorescence microscope with a 25× light microscope objective.
IC50 and TC50 were calculated by nonlinear regression using four-parameter logistic curves on the SigmaPlot 10.0 software (http://www.systat.com). Each IC50 or TC50 is expressed as a mean between two independent experiments, followed by the standard error of the mean.

P. yoelii blood stages = test: In vivo assay: P. yoelii blood stages in mice
Description: (§1) In order to test for inhibitory activity against P. yoelii blood stages, four groups of five naive mice were inoculated (intraperitoneally) with 10^6 P. yoelii–infected red blood cells on day 0. Three hours later, one group was treated with tazopsine at 100 mg/kg, another with NCP-tazopsine at 200 mg/kg, whereas the other two groups acted as controls (respectively, water and 10% Tween 80). The doses were repeated daily until day +3. For the group treated with NCP- tazopsine and its control group, the animals were anesthetised 2 h following the administration of the last dose (day +3), and placed for 30 min over a cage with 100 female laboratory-bred A. stephensi. Oocysts were enumerated in 30 mosquito midguts dissected 8 d later, and the number of sporozoites in the salivary glands dissected from 30 insects was ascertained a further 7 d later. All the experiments were performed in two independent duplicates, and enumeration of parasites in blood smears and mosquitoes was conducted in a blinded fashion.

[2] = tested on: P. yoelii transmissibility (oocysts, sporozoites in A. stephensi); test: Transmissibility to A. stephensi mosquitoes fed on treated mice; type: in vivo; details: 200 mg/kg, A. stephensi fed on treated mice (unpublished data)
Description: as §1

[3] = tested on: P. yoelii liver stage parasites (18S rRNA); test: Real-time PCR quantification of P. yoelii parasites in mouse livers; type: in vivo, Swiss mice; details: 42 h PI
Description: Female 6-wk-old Swiss mice weighing 24–31 g were randomly allotted to three groups. The drug to be tested was administrated orally on days −1, 0, and +1. Group 1 received 100 mg/kg/d of NCP-tazopsine (n = 4), group 2 received 200 mg/kg/d of NCP-tazopsine (n = 6), whereas the control group received Tween 80 at 10% in sterile water (n = 5). Mice were challenged on day 0 by retro-orbital injection with 120,000 P. yoelii sporozoites and sacrificed 42-h postinoculation. A piece of liver (0.2 g) was harvested and total RNA extracted using the Micro to Midi kit (Invitrogen) according to the manufacturer's instructions. The detection and quantification of liver stage parasites were done as described with minor modifications. Five micrograms of total RNA were treated with DNase from the Turbo DNA-free kit (Ambion, Huntingdon, United Kingdom) and reverse transcribed by Superscript II (Invitrogen) according to the manufacturer's instructions. A total of 6 μl of the 300 μl obtained (an equivalent to 100 ng of the starting total RNA) were used per TaqMan PCR assay (MX4000 multiplex quantitative PCR system; Stratagene, La Jolla, California, United States). […] Lack of nonspecific amplification with mouse genomic DNA was determined in preliminary experiment (unpublished data). […] Absolute transcript copy number for each gene was calculated based on their external standard curves. […]

SMILES	phase of hepatic development most susceptible to inhibition ([1]; P. yoelii, exposure 0-3 h, 3-24 h or 24-48 h)	IC80 ([1]; Plasmodium yoelii, Hepatocyte) [µM]	IC50 ([1]; Plasmodium yoelii, Hepatocyte) [µM]	IC90 ([1]; Plasmodium yoelii, Hepatocyte) [µM]	concentration giving total inhibition ([1]; cultured P. yoelii hepatic stages) [µM]	Sporozoite invasion and differentiation into early hepatic stages ([1]; exposure 0-3 h postinfection, suboptimal inhibitory concentrations)	inhibition of the erythrocytic multiplication cycle (P. yoelii blood stages; 100 mg/kg daily, mice challenged with P. yoelii-infected blood (unpublished data))	oral dose above which toxic to mice (Oral toxicity in mice; given daily over 4 d)	effect on blood stage parasite multiplication (P. yoelii blood stages; fully protective dose (200 mg/kg), mice inoculated with P. yoelii-infected blood (unpublished data))	effect on the transmissibility of the parasite [2]	reduction of liver parasite load versus controls ([3]; fully protective dose (200 mg/kg/d oral), 120,000 sporozoites) [%]	reduction of liver parasite load versus controls ([3]; suboptimal dose (100 mg/kg/d oral), 120,000 sporozoites) [%]	toxicity to mice (Oral toxicity in mice; up to doses of 400 mg/kg for 4 d)
COC1=C2[C@H]3NCC[C@]2(C[C@H](O)[C@@H]1O)c1c(ccc(OC)c1O)[C@H]3O [Tazopsine, tazopsine]	most pronounced during the early developmental stages of the hepatic parasite (3 to 24 h)	5	3.1 ± 0.1	6.3 ± 0.8	≥ 7.1	not affected	No significant inhibition	exceeding 100 mg/kg	–	–	–	–	–
COC1=C2[C@@H]3[C@H](O)c4ccc(OC)c(O)c4[C@]2(CCN3C2CCCC2)C[C@H](O)[C@@H]1O [NCP-tazopsine, N-cyclopentyl-tazopsine]	–	–	3.3 ± 0.05	5.2 ± 1.4	–	–	–	–	no effect	no effect	99.98	98.58	not found to be toxic
